Experimental data: ChEMBL document CHEMBL1153781, “Prediction of volume of distribution values in human using immobilized artificial membrane partitioning coefficients, the fraction of compound ionized and plasma protein binding data” (Eur J Med Chem, 2009)

Legend:
[1] = Dissociation constant, pKa of the compound; type: physicochemical
Plasma = details: human
Description: Fraction unbound in human plasma

clinical = details: human, in vivo

Nc1ncnc2c1ncn2CCOCP(=O)(O)O [ADEFOVIR]
pKa [1]: 1.3
fu (Plasma): 0.895

CC1(C)S[C@@H]2[C@H](NC(=O)[C@H](N)c3ccc(O)cc3)C(=O)N2[C@H]1C(=O)O [AMOXICILLIN]
pKa [1]: 2.4
fu (Plasma): 0.82
Vd (clinical): 0.85 L/kg

C[C@H]1[C@H](NC(=O)/C(=N\OC(C)(C)C(=O)O)c2csc(N)n2)C(=O)N1S(=O)(=O)O [AZTREONAM]
pKa [1]: 2.75

CCCCN1CCCCC1C(=O)Nc1c(C)cccc1C (centres undefined) [BUPIVACAINE]
pKa [1]: 8.16
fu (Plasma): 0.044
Vd (clinical): 0.7 L/kg

Cc1nnc(SCC2=C(C(=O)O)N3C(=O)[C@@H](NC(=O)Cn4cnnn4)[C@H]3SC2)s1 [CEFAZOLIN]
pKa [1]: 2.1

C=CC1=C(C(=O)O)N2C(=O)[C@@H](NC(=O)/C(=N\OCC(=O)O)c3csc(N)n3)[C@H]2SC1 [CEFIXIME]
pKa [1]: 2.1
fu (Plasma): 0.33

CCN1CCN(C(=O)N[C@@H](C(=O)N[C@@H]2C(=O)N3C(C(=O)O)=C(CSc4nnnn4C)CS[C@H]23)c2ccc(O)cc2)C(=O)C1=O [CEFOPERAZONE]
pKa [1]: 2.6

CO/N=C(\C(=O)N[C@@H]1C(=O)N2C(C(=O)O)=C(COC(C)=O)CS[C@H]12)c1csc(N)n1 [CEFOTAXIME]
pKa [1]: 3.75
fu (Plasma): 0.6
Vd (clinical): 0.28 L/kg

CO/N=C(\C(=O)N[C@@H]1C(=O)N2C(C(=O)O)=C(CSc3nc(=O)c(=O)[nH]n3C)CS[C@H]12)c1csc(N)n1 [CEFTRIAXONE]
pKa [1]: 2.7
fu (Plasma): 0.075

O=C(O)c1cc(=O)c2c(OCC(O)COc3cccc4oc(C(=O)O)cc(=O)c34)cccc2o1 [CROMOLYN]
pKa [1]: 1.9
fu (Plasma): 0
Vd (clinical): 0.32 L/kg

CCn1cc(C(=O)O)c(=O)c2cc(F)c(N3CCNCC3)nc21 [ENOXACIN]
pKa [1]: 6.3
fu (Plasma): 0.485
Vd (clinical): 1.96 L/kg

COC(=O)CCc1ccc(OCC(O)CNC(C)C)cc1 (centres undefined) [ESMOLOL]
fu (Plasma): 0.45
Vd (clinical): 1.9 L/kg

COc1c(N2CCNC(C)C2)c(F)cc2c(=O)c(C(=O)O)cn(C3CC3)c12 (centres undefined) [GATIFLOXACIN]
pKa [1]: 6
Vd (clinical): 1.75 L/kg

Cc1ccc(S(=O)(=O)NC(=O)NN2CC3CCCC3C2)cc1 (centres undefined) [GLICLAZIDE]
pKa [1]: 5.98
fu (Plasma): 0.09
Vd (clinical): 0.36 L/kg

COc1ccc2c(c1)C(=O)N(CCc1ccc(S(=O)(=O)NC(=O)NC3CCCCC3)cc1)C(=O)C2(C)C [GLIQUIDONE]
pKa [1]: 5
fu (Plasma): 0.01
Vd (clinical): 0.16 L/kg

CCn1cc(C(=O)O)c(=O)c2cc(F)c(N3CCNC(C)C3)c(F)c21 (centres undefined) [LOMEFLOXACIN]
pKa [1]: 5.99
fu (Plasma): 0.89
Vd (clinical): 2.3 L/kg

CCOC(=O)C1(c2ccccc2)CCN(C)CC1 [MEPERIDINE]
pKa [1]: 10.5
fu (Plasma): 0.42

Cc1ccccc1N1C(=O)c2cc(S(N)(=O)=O)c(Cl)cc2NC1C (centres undefined) [METOLAZONE]
pKa [1]: 9.72
Vd (clinical): 1.61 L/kg

Nc1cc(N2CCCCC2)nc(N)[n+]1[O-] [MINOXIDIL]
pKa [1]: 4.6
fu (Plasma): 1
Vd (clinical): 3 L/kg

CN1CCOC(c2ccccc2)c2ccccc2C1 (centres undefined) [NEFOPAM]
pKa [1]: 9.3
fu (Plasma): 0.27
Vd (clinical): 7.23 L/kg

CCn1cc(C(=O)O)c(=O)c2cc(F)c(N3CCNCC3)cc21 [NORFLOXACIN]
pKa [1]: 6.3
fu (Plasma): 0.85
Vd (clinical): 2.8 L/kg

CCCC(C)C1(CC)C(=O)NC(=O)NC1=O (centres undefined) [PENTOBARBITAL]
pKa [1]: 8.1
fu (Plasma): 0.45
Vd (clinical): 1 L/kg

CC[C@H](C)C(=O)O[C@H]1C[C@H](O)C=C2C=C[C@H](C)[C@H](CC[C@@H](O)C[C@@H](O)CC(=O)O)[C@H]21 [PRAVASTATIN]
pKa [1]: 4.7
fu (Plasma): 0.55

CCCNC(C)C(=O)Nc1ccccc1C (centres undefined) [PRILOCAINE]
pKa [1]: 7.9
fu (Plasma): 0.715

CCCOC(C(=O)OC1CCN(C)CC1)(c1ccccc1)c1ccccc1 [PROPIVERINE]
pKa [1]: 6.65
fu (Plasma): 0.075
Vd (clinical): 1.9 L/kg

CCS(=O)(=O)CCn1c([N+](=O)[O-])cnc1C [TINIDAZOLE]
fu (Plasma): 0.88
Vd (clinical): 0.7 L/kg

COc1cccc(C2(O)CCCCC2CN(C)C)c1 (centres undefined) [TRAMADOL]
pKa [1]: 8.3
fu (Plasma): 0.96

C[C@]12C=CC(=O)C=C1CC[C@H]1[C@@H]3C[C@@H](O)[C@](O)(C(=O)CO)[C@@]3(C)C[C@H](O)[C@@]12F [TRIAMCINOLONE]
fu (Plasma): 0.32
Vd (clinical): 1.76 L/kg

CC(=O)CC(c1ccccc1)c1c(O)c2ccccc2oc1=O (centres undefined) [WARFARIN]
fu (Plasma): 0.01
Vd (clinical): 0.14 L/kg
